Target: T1, E-selectin (Homo sapiens, UniProt P16581)
T1 sequence (P16581 whole entry): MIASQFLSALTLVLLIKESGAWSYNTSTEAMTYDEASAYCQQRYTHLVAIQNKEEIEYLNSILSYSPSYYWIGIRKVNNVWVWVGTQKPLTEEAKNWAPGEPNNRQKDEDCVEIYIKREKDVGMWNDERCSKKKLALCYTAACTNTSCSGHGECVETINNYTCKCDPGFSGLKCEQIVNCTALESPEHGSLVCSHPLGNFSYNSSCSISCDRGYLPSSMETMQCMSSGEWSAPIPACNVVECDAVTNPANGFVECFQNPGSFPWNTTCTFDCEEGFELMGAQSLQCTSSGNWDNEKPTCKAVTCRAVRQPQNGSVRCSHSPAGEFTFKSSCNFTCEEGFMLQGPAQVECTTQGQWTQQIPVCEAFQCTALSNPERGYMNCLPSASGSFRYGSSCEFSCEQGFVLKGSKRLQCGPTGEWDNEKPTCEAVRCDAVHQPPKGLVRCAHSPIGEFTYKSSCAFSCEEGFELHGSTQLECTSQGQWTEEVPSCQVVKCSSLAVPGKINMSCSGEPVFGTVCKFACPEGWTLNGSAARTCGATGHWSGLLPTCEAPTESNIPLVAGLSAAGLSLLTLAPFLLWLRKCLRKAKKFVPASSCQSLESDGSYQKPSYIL
Assay: Compound was tested for its ability to inhibit the binding to recombinant human Selectin E immobilized on SPA beads of radiolabeled HL60 cell membrane containing sLex.
Type: cell membranes, HL-60

IC50 [µM] | Compound
500 | C[C@@H]1O[C@@H](OC2CCCCC2O[C@@H]2O[C@@H](CO)[C@H](O)[C@H](OCC(=O)O)[C@@H]2O)[C@@H](O)[C@@H](O)[C@@H]1O (stereo partly drawn)
2100 | CC(O[C@@H]1O[C@@H](C)[C@@H](O)[C@H](O)[C@@H]1O)C(C)O[C@@H]1O[C@@H](CO)[C@H](O)[C@H](OCC(=O)O)[C@@H]1O (stereo partly drawn)
> 10000 | C[C@@H]1O[C@@H](O[C@@H]2CCCC[C@H]2O[C@@H]2O[C@@H](CO)[C@H](O)[C@H](OCC(=O)O)[C@@H]2O)[C@@H](O)[C@@H](O)[C@@H]1O

— ChEMBL document CHEMBL1129722, “Synthesis and biological activity of conformationally constrained sialyl Lewis X analogues with reduced carbohydrate character” (Bioorg Med Chem Lett, 1996)
